How the values were obtained:
GTM-3 cells [1] = assay: Fibronectin ELISA of culture supernatants from treated GTM-3 cell monolayers (TGFβ2 mediated responses); assay type: cell-based, human; details: GTM-3 monolayers, 24 h; for TGFβ2-stimulated fibronectin levels in supernatants: FIG. 1
Experimental: FIG. 1A, FIG. 1B and FIG. 1C depict the effects of various amounts of PKC inhibitors on basal and stimulated (TGFβ2) fibronectin content in supernatants collected from treated monolayers of GTM-3 cells.
(§1) Cultured transformed human TM cells (“GTM-3”; see Pang I H, et al., 1994) were grown in a growth medium consisting of Dulbecco's modified Eagle's medium with Glutamax I (Gibco/Invitrogen, Grand Island, N.Y.) supplemented with 10% fetal bovine serum (Hyclone, Logan, Utah) and 50 μg/mL gentamicin (Gibco/Invitrogen). For assay, cultures were enzymatically-dissociated (TrypLE Express; Gibco/Invitrogen) then seeded into 24-well plates (Corning Costar, Acton, Mass.) and allowed to grow until monolayers reached approximately 90-95% confluence. Culture medium was then replaced with 0.25 mL serum- and antibiotic-free medium containing the appropriate test compound(s). Cells were incubated 24 h, at 5% CO2 and 37° C. Aliquots of culture supernatants were then assayed using ELISA kits for fibronectin (AssayPro, St. Charles, Mo.), PAI-I (American Diagnostica, Stamford, Conn.) and procollagen Type I C-peptide (TaKaRa Bio, Shiga, Japan).
(§2) The test compounds used were rottlerin (a specific PKC-delta inhibitor), Gö6976 (inhibits the calcium-dependent PKC isoforms alpha, beta, & mu) and bisindolylmaleimide I (a broad-spectrum PKC inhibitor).

GTM-3 cells [2] = assay: PAI-I ELISA of culture supernatants from treated GTM-3 cell monolayers (TGFβ2 mediated responses); assay type: cell-based, human; details: GTM-3 monolayers, 24 h; for TGFβ2-stimulated PAI-I levels in supernatants: FIG. 2
Experimental: FIG. 2A, FIG. 2B and FIG. 2C depicts the effects of PKC inhibition on basal and stimulated (TGFβ2) PAI-I content in supernatants collected from treated monolayers of GTM-3 cells.
as §1, §2

SMILES | TGFβ2-stimulated fibronectin levels in supernatants (GTM-3 cells [1]) | basal fibronectin in supernatants (GTM-3 cells [1]; basal, 10 uM dose, FIG. 1A) | TGFβ2-stimulated PAI-I levels in supernatants (GTM-3 cells [2]) | basal fibronectin content in supernatants (GTM-3 cells [1]; basal, FIG. 1B) | basal PAI-I content in supernatants (GTM-3 cells [2]; basal, FIG. 2B) | fibronectin levels in supernatants (GTM-3 cells [1]; basal and TGFβ2-stimulated, tested concentrations, FIG. 1C)
CC(=O)c1c(O)c(C)c(O)c(Cc2c(O)c3c(c(C(=O)/C=C/c4ccccc4)c2O)OC(C)(C)C=C3)c1O [rottlerin] | effectively reduces TGFβ2-stimulated fibronectin levels at both tested concentrations | effectively reduced basal fibronectin | dose-dependently reduces TGFβ2-stimulated PAI-I levels | – | – | –
Cn1c2ccccc2c2c3c(c4c5ccccc5n(CCC#N)c4c21)CNC3=O [Gö6976] | without effect | – | without effect | without effect | without effect | –
CN(C)CCCn1cc(C2=C(c3c[nH]c4ccccc34)C(=O)NC2=O)c2ccccc21 [Bis I, bisindolylmaleimide I] | – | – | reduced TGFβ2-stimulated PAI-I levels only at the 100 nM dose | – | – | lack of effect
